The values below come from patent US12005142B2, “Sustained-release compositions comprising a therapeutic agent for treating depression or anxiety and uses thereof” (TAIWAN LIPOSOME CO., LTD., priority 2018, dated 2024).

Structures can show the parent of a compound that is named as a salt. Where two headings read alike, the source gives them in different places.

The nature of series [1]: PK study of liposomal ketamine formulation and free ketamine after single subcutaneous injection. On the procedure: Blood samples were collected at 15 min, 0.5, 1, 2, 4, 6, 8, 24 and 48 hours post-injection.
For series [2] the following is noted: cited from earlier work.
For series [3] the following is noted: three infusions per week; eight of nine subjects; cited from earlier work.
The conditions of series [4]: oral administration; cited from earlier work.
For series [5] the following is noted: free ketamine IV infusion 10 mg/kg/min over 5 min (50.0 mg/kg), Wistar rats; cited from earlier work.
For series [6] the following is noted: free ketamine, intraperitoneal injection in rat; cited from earlier work.
For series [7] the following is noted: cited from earlier work. The source holds these as a separate data set.
For series [8] the following is noted: intravenous; of the eight patients enrolled; cited from earlier work.
For series [9] the following is noted: 3 intravenous infusions, 3-5 days interval; cited from earlier work.
Where [10] appears, read: female, Sprague-Dawley, rat, plasma, sc, 5 mg/kg.
Where [11] appears, read: free ketamine SC 5.0 mg/kg, rat plasma.

In series [1] (setting [10]), `CNC1(c2ccccc2Cl)CCCCC1=O` (stereo not drawn) [Free Ketamine, ketamine hydrochloride] had an AUC(0-inf) of 314 ng·h/mL, an AUC(0-t) of 305 ng·h/mL, a Cmax of 190 ng/mL and a half-life of 46.2 min. In series [1] (setting [11]), this molecule registered an AUC0-inf/dose of 62.9, an AUC0-t/dose of 61.0 and a Cmax/dose of 38.0. Further, the “time post injection at which ketamine was undetectable in plasma” value in series [1] (free ketamine SC, FIG. 1) amounted to 4 h. The “patients in whom the therapeutic response was maintained” value in [2] (for a week after a single intravenous infusion) is given as 35%. In series [2] (one day after a single intravenous infusion, 17 patients), the “patients with >50% decrease in Hamilton Depression Rating Scale (HDRS) score” value is 71%. In addition, in series [3], the “time to relapse after the final intravenous infusion” value is listed as no more than 19 days. Further, the “patients showing improvement of mood symptoms” value in series [4] was “approximately 30%”. Further, in series [5], the “t1/2” value is 37.8 min. In series [6], the half-life is 78 min. In addition, the oral bioavailability in [7] is 17%.
Take `CN1[C@@H]2C[C@@H](OC(=O)[C@H](CO)c3ccccc3)C[C@H]1[C@@H]1O[C@@H]12` [Free Scopolamine, scopolamine hydrobromide trihydrate]: in series [8], the “patients remitted to the nondepressed range (MADRS score 10)” value is listed as 3 and the “patients with a 50% or greater reduction in MADRS scores” value is “five”. In addition, the “persistence of clinical improvement following the final infusion” value in series [9] is “more than 2 weeks”.
